This note sets out measurements from publication doi:10.1101/2024.09.04.611205v1 (biorxiv, 2024).

The target of one test is T1, cyclooxygenase 2 (COX-2) (Homo sapiens, UniProt P35354).
T1 sequence (P35354 18-604): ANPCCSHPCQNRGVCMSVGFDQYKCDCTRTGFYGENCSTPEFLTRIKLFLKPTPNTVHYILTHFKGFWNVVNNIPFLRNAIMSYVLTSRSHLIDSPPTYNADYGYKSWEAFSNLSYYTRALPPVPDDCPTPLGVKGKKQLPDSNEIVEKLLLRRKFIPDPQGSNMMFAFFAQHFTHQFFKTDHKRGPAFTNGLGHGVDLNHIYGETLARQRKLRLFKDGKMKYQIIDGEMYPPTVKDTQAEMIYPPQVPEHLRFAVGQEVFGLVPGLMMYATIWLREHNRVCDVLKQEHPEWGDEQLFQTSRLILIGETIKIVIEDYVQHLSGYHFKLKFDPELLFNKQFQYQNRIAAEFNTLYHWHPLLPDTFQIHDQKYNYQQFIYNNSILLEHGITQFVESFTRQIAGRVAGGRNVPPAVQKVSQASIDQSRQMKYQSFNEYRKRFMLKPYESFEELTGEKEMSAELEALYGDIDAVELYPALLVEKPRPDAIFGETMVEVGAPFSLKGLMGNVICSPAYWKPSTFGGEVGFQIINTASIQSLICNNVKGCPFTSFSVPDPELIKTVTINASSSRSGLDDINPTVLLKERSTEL
Description: fluorimetric ADHP/resorufin assay. The class given is biochemical. Particulars: read-out: % inhibition at 20 μM.

Another test concerns the target cyclooxygenase 1 (COX-1) (Homo sapiens, UniProt P23219). As to the kind of experiment: fluorimetric ADHP/resorufin assay. The class given is biochemical. The conditions noted are these: read-out: % inhibition at 20 μM.

Chain of cyclooxygenase 1 (COX-1) (P23219 24-599): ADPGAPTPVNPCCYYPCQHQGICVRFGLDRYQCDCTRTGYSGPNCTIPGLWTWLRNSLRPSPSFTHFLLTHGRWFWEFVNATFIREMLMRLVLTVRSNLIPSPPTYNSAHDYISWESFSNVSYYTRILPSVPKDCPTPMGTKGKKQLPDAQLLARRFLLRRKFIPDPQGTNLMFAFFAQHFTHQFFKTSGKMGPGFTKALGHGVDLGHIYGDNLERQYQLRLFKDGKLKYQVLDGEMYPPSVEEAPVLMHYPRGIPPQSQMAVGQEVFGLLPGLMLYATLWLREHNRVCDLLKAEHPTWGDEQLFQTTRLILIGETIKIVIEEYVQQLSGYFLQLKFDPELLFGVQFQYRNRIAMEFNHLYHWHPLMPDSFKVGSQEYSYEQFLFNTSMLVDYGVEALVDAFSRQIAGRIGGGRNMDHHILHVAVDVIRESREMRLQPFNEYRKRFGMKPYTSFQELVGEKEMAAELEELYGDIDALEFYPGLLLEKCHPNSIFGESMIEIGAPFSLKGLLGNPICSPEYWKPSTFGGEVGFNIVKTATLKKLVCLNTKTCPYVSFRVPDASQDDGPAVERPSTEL

Consider `Cc1cccc(-c2n[nH]cc2-c2ccc3ncccc3n2)n1` [RepSox], for which the inhibition at 20 µM was 13% at cyclooxygenase 2 (COX-2) and 61% at cyclooxygenase 1 (COX-1).

Broadly, the inhibition is the drop in the measured response relative to a control, in per cent.
